Assay results from patent US6589993B2, “Treating vancomycin-intermediates and multiresistant staphylococci infection with thiamphenicol or a salt thereof” (Zambon Group S.p.A., priority 2000, dated 2003).
In brackets after ≈: the same amount, converted by molar mass.

Key:
[1] = system: S. aureus Met-R multiresistant strains; assay: MIC determination (NCCLS broth microdilution), methicillin-resistant multiresistant S. aureus strains; format: cell-based, Staphylococcus aureus; conditions: for MIC: antibiotype Oxa, Ery
Procedure: (§1) The MICs of thiamphenicol and of other antibiotics was obtained by using the method proposed by NCCLS (National Committee for Clinical Laboratory Standards, 1999).
(§2) Various antibiotic concentrations were added to bacteria in exponental growth (final inoculum 5×10^5 […]); dilution in Mb (cation-supplemented Mueller-Hinton broth) and distribution on a microplate by using an automatic diluting machine Biomek 1000 (Beckman, USA). MHb charged with 2% NaCl was used to test the methicillin activity.
(§3) The antibiotic concentration which hinders a visible growth after 18-24 hours of incubation at 37° C., was registered as MIC.
(§4) S. aureus ATCC 29213 was used as quality control strain.

[2] = system: S. aureus vancomycin-intermediates (VISA) Met-R strains; assay: MIC determination (NCCLS broth microdilution), VISA Met-R strains; format: cell-based, Staphylococcus aureus
Procedure: as §1, §2, §3, §4

Structure (SMILES): CN[C@H](CC(C)C)C(=O)N[C@H]1C(=O)N[C@@H](CC(N)=O)C(=O)N[C@H]2C(=O)N[C@H]3C(=O)N[C@H](C(=O)N[C@H](C(=O)O)c4cc(O)cc(O)c4-c4cc3ccc4O)[C@H](O)c3ccc(c(Cl)c3)Oc3cc2cc(c3O[C@@H]2O[C@H](CO)[C@@H](O)[C@H](O)[C@H]2O[C@H]2C[C@](C)(N)[C@H](O)[C@H](C)O2)Oc2ccc(cc2Cl)[C@H]1O [Vancomicine, vancomycine]
- MIC Range ([1]; S. aureus (50) Met-R): 0,5-2 mg/l
- % susceptible at breakpoint ([1]; S. aureus (50) Met-R, NCCLS (1999) breakpoints): 100%
- MIC50 ([1]; Staphylococcus aureus): 1 µg/mL (≈ 0.69 µM)
- MIC90 ([1]; Staphylococcus aureus): 1 µg/mL (≈ 0.69 µM)
- MIC ([1]; Staphylococcus aureus, Strain 1, Cip, Clin, Gm): 0.5 µg/mL (≈ 0.345 µM)
- MIC ([1]; Staphylococcus aureus, Strain 2, Clin, Fos): 1 µg/mL (≈ 0.69 µM)
- MIC ([1]; Staphylococcus aureus, Strain 3, Cip, Clin, Gm): 1 µg/mL (≈ 0.69 µM)
- MIC ([1]; Staphylococcus aureus, Strain 4, Cip, Gm): 1 µg/mL (≈ 0.69 µM)
- MIC ([1]; Staphylococcus aureus, Strain 5, Cip, Clin): 1 µg/mL (≈ 0.69 µM)
- MIC ([1]; Staphylococcus aureus, Strain 6, Clin, Gm): 1 µg/mL (≈ 0.69 µM)
- MIC ([1]; Staphylococcus aureus, Strain 7, Cip, Gm): 0.5 µg/mL (≈ 0.345 µM)
- MIC ([1]; Staphylococcus aureus, Strain 8, Cip, Clin): 1 µg/mL (≈ 0.69 µM)
- MIC ([1]; Staphylococcus aureus, Strain 9, Cip, Clin, Gm): 1 µg/mL (≈ 0.69 µM)
- MIC ([1]; Staphylococcus aureus, Strain 10, Cip, Clin, Gm): 1 µg/mL (≈ 0.69 µM)
- MIC ([1]; Staphylococcus aureus, Strain 11, Clin, Rif): 1 µg/mL (≈ 0.69 µM)
- MIC ([1]; Staphylococcus aureus, Strain 12, Cip, Clin): 1 µg/mL (≈ 0.69 µM)
- MIC ([1]; Staphylococcus aureus, Strain 13, Cip, Clin): 1 µg/mL (≈ 0.69 µM)
- MIC ([1]; Staphylococcus aureus, Strain 14, Clin, Cip): 1 µg/mL (≈ 0.69 µM)
- MIC ([1]; Staphylococcus aureus, Strain 15, Cip, Clin, Gm): 0.5 µg/mL (≈ 0.345 µM)
- MIC ([1]; Staphylococcus aureus, Strain 16, Cip, Clin): 1 µg/mL (≈ 0.69 µM)
- MIC ([1]; Staphylococcus aureus, Strain 17, Cip, Clin): 0.5 µg/mL (≈ 0.345 µM)
- MIC ([1]; Staphylococcus aureus, Strain 18, Cip, Clin, Gm): 1 µg/mL (≈ 0.69 µM)
- MIC ([1]; Staphylococcus aureus, Strain 19, Cip, Clin, Gm): 1 µg/mL (≈ 0.69 µM)
- MIC ([1]; Staphylococcus aureus, Strain 20, Cip, Clin, Gm): 1 µg/mL (≈ 0.69 µM)
- MIC ([1]; Staphylococcus aureus, Strain 21, Cip, Clin, Gm): 1 µg/mL (≈ 0.69 µM)
- MIC ([1]; Staphylococcus aureus, Strain 22, Cip, Clin): 0.5 µg/mL (≈ 0.345 µM)
- MIC ([1]; Staphylococcus aureus, Strain 23, Cip, Clin, Gm): 1 µg/mL (≈ 0.69 µM)
- MIC ([1]; Staphylococcus aureus, Strain 24, Cip, Clin, Gm): 1 µg/mL (≈ 0.69 µM)
- MIC ([1]; Staphylococcus aureus, Strain 25, Cip, Clin, Gm): 1 µg/mL (≈ 0.69 µM)
- MIC ([1]; Staphylococcus aureus, Strain 26, Cip, Clin, Fos, Gm): 1 µg/mL (≈ 0.69 µM)
- MIC ([1]; Staphylococcus aureus, Strain 27, Cip, Clin, Fos, Gm): 1 µg/mL (≈ 0.69 µM)
- MIC ([1]; Staphylococcus aureus, Strain 28, Cip, Clin, Gm): 1 µg/mL (≈ 0.69 µM)
- MIC ([1]; Staphylococcus aureus, Strain 29, Clin, Fos): 1 µg/mL (≈ 0.69 µM)
- MIC ([1]; Staphylococcus aureus, Strain 30, Cip, Clin, Gm, SXT, Dox): 0.5 µg/mL (≈ 0.345 µM)
- MIC ([1]; Staphylococcus aureus, Strain 31, Cip, Clin, Fox, Gm): 1 µg/mL (≈ 0.69 µM)
- MIC ([1]; Staphylococcus aureus, Strain 32, Cip, Clin, Gm, SXT, Rif): 1 µg/mL (≈ 0.69 µM)
- MIC ([1]; Staphylococcus aureus, Strain 33, Cip, Clin, Gm): 0.5 µg/mL (≈ 0.345 µM)
- MIC ([1]; Staphylococcus aureus, Strain 34, Cip, Clin, Gm): 0.5 µg/mL (≈ 0.345 µM)
- MIC ([1]; Staphylococcus aureus, Strain 35, Cip, Clin, Gm): 1 µg/mL (≈ 0.69 µM)
- MIC ([1]; Staphylococcus aureus, Strain 36, Cip, Clin, Fos): 0.5 µg/mL (≈ 0.345 µM)
- MIC ([1]; Staphylococcus aureus, Strain 37, Cip, Clin, Fos, Gm): 0.5 µg/mL (≈ 0.345 µM)
- MIC ([1]; Staphylococcus aureus, Strain 38, Cip, Gm): 0.5 µg/mL (≈ 0.345 µM)
- MIC ([1]; Staphylococcus aureus, Strain 39, Cip, Clin, Fos, Gm): 0.5 µg/mL (≈ 0.345 µM)
- MIC ([1]; Staphylococcus aureus, Strain 40, Cip, Clin, Gm): 0.5 µg/mL (≈ 0.345 µM)
- MIC ([1]; Staphylococcus aureus, Strain 41, Cip, Clin): 0.5 µg/mL (≈ 0.345 µM)
- MIC ([1]; Staphylococcus aureus, Strain 42, Cip, Clin, Gm): 0.5 µg/mL (≈ 0.345 µM)
- MIC ([1]; Staphylococcus aureus, Strain 43, Cip, Clin, Gm): 0.5 µg/mL (≈ 0.345 µM)
- MIC ([1]; Staphylococcus aureus, Strain 44, Cip, Clin, Gm, Rif, Dox): 1 µg/mL (≈ 0.69 µM)
- MIC ([1]; Staphylococcus aureus, Strain 45, Cip, Clin, Gm, Rif, Dox, Fos): 1 µg/mL (≈ 0.69 µM)
- MIC ([1]; Staphylococcus aureus, Strain 46, Clin, Fos): 0.5 µg/mL (≈ 0.345 µM)
- MIC ([1]; Staphylococcus aureus, Strain 47, Cip, Clin, Gm): 0.5 µg/mL (≈ 0.345 µM)
- MIC ([1]; Staphylococcus aureus, Strain 48, Cip, Clin): 2 µg/mL (≈ 1.38 µM)
- MIC ([1]; Staphylococcus aureus, Strain 49, Cip, Gm): 1 µg/mL (≈ 0.69 µM)
- MIC ([1]; Staphylococcus aureus, Strain 50, Cip, Clin, Gm, Rif, Dox): 1 µg/mL (≈ 0.69 µM)
- MIC ([2]; Staphylococcus aureus, VISA): 8 µg/mL (≈ 5.52 µM)
- MIC ([2]; Strain 52 VISA, antibiotype Oxa, Cip, Clin, Ery): 8 µg/mL (≈ 5.52 µM)
- MIC Range ([2]; VISA (2) Met-R): 8 mg/L (≈ 5.52 µM)
